Experiments:
cholesterol = conditions: Pearce et al. 1992; cited from earlier work
[1] = cited from earlier work
IKBKAP = conditions: Anderson et al. 2003; cited from earlier work
essential hypertension = assay: Hypertension (Example 13); conditions: in vivo
Text: Also, C-5 unsubstituted tocols (i.e., all delta and gamma isomers) had this effect.

[2] = system: spontaneous hypertensive rats (SHR); conditions: Newaz and Nawal 1999; cited from earlier work
C-reactive protein = conditions: higher dosage needed; cited from earlier work
[3] = some biologic systems; cited from earlier work

Compound: CC(C)=CCC/C(C)=C/CC/C(C)=C/CC[C@]1(C)CCc2cc(O)cc(C)c2O1 [Delta-tocotrienol, delta-tocotrienol]
- isomeric potency of cholesterol reduction (relative) (cholesterol): greater than gamma-T3
- Biologic activity relative to alpha-T3 ([1]; greater than alpha-T3): 4-10 times
- Biologic activity relative to gamma-T3 ([1]; greater than gamma-T3): 1-2 times
- increase of IKBKAP gene transcription (IKBKAP): 3.5 fold
- NOS activity (essential hypertension): increased NOS activity
- essential hypertension (essential hypertension): reduced essential hypertension

Compound: CC(C)=CCC/C(C)=C/CC/C(C)=C/CC[C@]1(C)CCc2cc(O)c(C)c(C)c2O1 [Gamma-T3, gamma-tocotrienol]
- isomeric potency of cholesterol reduction (relative) (cholesterol): five-fold greater than alpha-T3
- NOS activity (essential hypertension): increased NOS activity
- development of increased blood pressure (essential hypertension): prevented the development of increased blood pressure
- essential hypertension (essential hypertension): reduced essential hypertension
- development of increased blood pressure [2]: prevent the development of increased blood pressure

Compound: Cc1c(C)c2c(c(C)c1O)CC[C@@](C)(CCC[C@H](C)CCC[C@H](C)CCCC(C)C)O2 [alpha-T1, Alpha-tocopherol]
- required dosage to lower CRP to a comparable range, relative to annatto tocotrienols (C-reactive protein): approximately 10 fold

Compound: Alpha-tocotrienol
- isomeric potency of cholesterol reduction (relative) (cholesterol): at least five-fold less active
- anti-oxidant power compared to alpha-T1 [3]: (40-60X in some biologic systems). First discovered to reduce cholesterol,

Source: US8586109B2, “Annatto extract compositions including tocotrienols and tocopherols and methods of use” (American River Nutrition, Inc., priority 2003, dated 2013)
